Data published in patent US8877163B2, “Cycloalkyl triamine pentacarboxylate as ligands for paramagnetic metal complexes” (Kaohsiung Medical University, priority 2006, dated 2014).
Read-outs that look alike come from different tables or passages of the source. Each block holds one compound with its values, some of them ahead of it.

What was measured:
[1] = Selectivity constant and modified selectivity constant of the gadolinium complex; assay type: physicochemical
Source text: The selectivity constant is used only for showing the difference between the gadolinium complex and other metal complexes. However, due to the coexistence of the zinc ion, the calcium ion and the copper ion in vivo, all the following factors, which are the pH value, the protonation constant for the ligand, the concentrations of the metal ions (Zn^2+, Ca^2+, Cu^2+) and the stability constants for Gd^3+, Zn^2+, Ca^2+ and Cu^2+ complexes should be considered for obtaining the selectivity constant with a new definition, called modified selectivity constant (Ksel′) and defined by the following equation: Ksel′=Ktherm(αH^−1+αCaL^−1+αCuL^−1+αZnL^−1)^−1, where αH^−1=1+K1^H[H^+]+K1^HK2^H [H^+]^++ . . .; αCaL^−1=1+KCaL[Ca^2+]; αCuL^−1=1+KCuL[Cu^2+]; αZnL^−1=1+KZnL[Zn^2+]; and thus the modified selectivity constant of the gadolinium complex at the biological pH (7.4) could be calculated by the mentioned equation (the value of the conditional stability constant is calculated previously, and the concentrations of the zinc, the calcium and the copper ions are 50 μM, […] and 1 μm, respectively).

[2] = Stability constants of the zinc complex by potentiometric titration (BEST program); assay type: physicochemical
Source text: (§1) Presently, there are two ways for calculating the thermodynamic stability constant of a metal complex by the potentiometric titration. […] The second method is suitable for the metal complex whose disassociation rate is less than 25% at low pH (such as pH 2). Take the metal complex of the present invention for instance, since it is not able to form a complex with the ligand at a pH value around 2, the thermodynamic stability constant thereof must be calculated by the previous method. The equation for the thermodynamic stability constant is defined as follows: [formula] where M represents the metal ion, L represents the ligand, and ML represents the metal complex. […] The thermodynamic stability constants for the metal complexes with CB-TTDA are determined from the titration data with the FORTRAN computer program BEST as shown in Table 2 with the reported thermodynamic stability constants of TTDA and DTPA, which are respectively reported by Y M. Wang et al., Inorganic Chemistry, vol. 44, page 382, 2005 and by P. Caravan et al., Inorganic Chemistry, vol. 44, page 2170, 2001. The conditional stability constant (Kcond) specifies the degree of metal chelation at a given pH and is defined as follows: […] [formula] where LT is the total concentration of the uncomplexed ligand, which is defined by the following equation: […]

[3] = Stability constants of the calcium complex by potentiometric titration (BEST program); assay type: physicochemical
Source text: as §1

[4] = Stability constants of the gadolinium complex by potentiometric titration (BEST program); assay type: physicochemical
Source text: as §1

[5] = Stability constants of the copper complex by potentiometric titration (BEST program); assay type: physicochemical
Source text: as §1

[6] = Protonation constants by potentiometric titration (PKAS program); assay type: physicochemical; details: for ΣpKa: sum of the four protonation constants
Protocol: Firstly, the ligands (HnL) are deprotoned (L^n−) by treating them with the alkaline solution. After that, a slow addition of the acidic solution for associating the deprotonated ligand with the protons (H^+) is performed, and thus protonated organic ligands are formed. The equation for the protonation constant is shown as follows:
Please refer to FIG. 2, which is a potentiometric titration curve for CB-TTDA (the ionic strength I=0.1 M Me4NCl and the temperature T=25.0±0.1° C.) measured by an automatic titrator system. The protonation constants for the CB-TTDA are determined from the titration data with the FORTRAN computer program PKAS as shown in Table 1.

[7] = I = 0.1 M Me4NCl, T = 25.0 ± 0.1° C.; reported values; cited from earlier work
[8] = I = 0.1 M Me4NCl, T = 25.0 ± 0.1° C.; reported values; cited from earlier work; remark: listed apart in the source
[9] = I = 0.1 M Me4NCl, T = 25.0 ± 0.1° C.; reported values; cited from earlier work; remark: listed apart in the source
[10] = reported values; cited from earlier work
[11] = I = 0.1 M Me4NCl, T = 25.0 ± 0.1° C.; reported values; cited from earlier work; remark: listed apart in the source
[12] = target: human serum albumin (Homo sapiens, UniProt P02768); details: cited from earlier work
Chain of human serum albumin (P02768 25-609): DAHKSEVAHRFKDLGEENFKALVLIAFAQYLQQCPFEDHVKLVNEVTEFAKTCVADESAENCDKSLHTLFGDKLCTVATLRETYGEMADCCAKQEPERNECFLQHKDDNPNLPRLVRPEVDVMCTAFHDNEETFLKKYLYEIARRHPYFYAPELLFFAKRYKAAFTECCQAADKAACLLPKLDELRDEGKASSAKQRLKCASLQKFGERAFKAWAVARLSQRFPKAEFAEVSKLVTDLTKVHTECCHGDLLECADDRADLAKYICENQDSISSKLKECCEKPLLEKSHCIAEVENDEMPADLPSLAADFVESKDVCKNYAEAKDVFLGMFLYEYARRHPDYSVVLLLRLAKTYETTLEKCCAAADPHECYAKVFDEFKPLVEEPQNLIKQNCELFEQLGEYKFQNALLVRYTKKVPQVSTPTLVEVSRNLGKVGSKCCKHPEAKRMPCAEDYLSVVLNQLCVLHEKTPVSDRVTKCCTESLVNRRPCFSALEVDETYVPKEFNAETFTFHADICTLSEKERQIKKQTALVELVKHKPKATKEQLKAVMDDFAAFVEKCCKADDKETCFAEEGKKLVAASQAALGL

[13] = Dy (III)-induced 17O-NMR water shift (d.i.s.), number of inner space water molecules; assay type: physicochemical
Source text: From measuring the d.i.s. (Dy (III)-induced ^17O-NMR water shifts) of the ^17O nuclides in water induced by Dy (III) via ^17O-NMR and graphing the concentration of Dy (III) complexes with respect to the d.i.s., a linear relationship is found, as shown in the following equation: d.i.s.=qΔ[Dy(ligand)n(H2O)q/[H2O]
The slope is qΔ/[H2O] with q being the number of inner space water molecule. […] Because the Dy (III) hydrate is able to combine with 8 water molecules and is in direct proportion to the slope, the value of q (q=0.9) for [Dy(CB-TTDA)]^2− is obtained thereby.

[14] = cited from earlier work
[15] = I = 0.1 M Me4NCl, T = 25.0 ± 0.1° C.

log K(Gd/Ca) (selectivity constant) [1]: 11.76
log K(Gd/Cu) (selectivity constant) [1]: 2.57
log K(Gd/Zn) (selectivity constant) [1]: 4.22
pZn [2]: 12.41
log KML [ZnL]/[Zn][L] [2, 15]: 16.06(0.03)
log KZnHL [2, 15]: 8.13(0.04)
log KZnL (pH = 7.4) (conditional stability constant) [2]: 10.60
pCa [3]: 4.09
log KCaHL [3, 15]: 6.24(0.02)
log KML [CaL]/[Ca][L] [3, 15]: 9.52(0.02)
log KCaL (pH = 7.4) (conditional stability constant) [3]: 4.06
log KML [GdL]/[Gd][L] (thermodynamic stability constant) [4]: 20.28(0.03)
pGd [4]: 15.82
pCu [5]: 13.26
log KCuHL [5, 15]: 5.29(0.03)
log KML [CuL]/[Cu][L] [5, 15]: 17.71(0.02)
log KCuL (pH = 7.4) (conditional stability constant) [5]: 12.25
log Kn^H [H4L]/[H3L][H] [6, 15]: 3.11(0.04)
log Kn^H [HL]/[L][H] [6, 15]: 11.08(0.03)
ΣpKa [6]: 28.59
Structure (SMILES): O=C(O)CN(CCN(CC(=O)O)CC1(CN(CC(=O)O)CC(=O)O)CCC1)CC(=O)O [CB-TTDA, 6-carboxymethyl-3-{{[1-(N,N-dicarboxymethyl)-2-aminomethyl]-cyclobut-1-yl}-methyl}-3,6-diazaoctanedioic acid]

log K(Gd/Ca) (selectivity constant) [1]: 11.71
log K(Gd/Cu) (selectivity constant) [1]: 1.08
log K(Gd/Zn) (selectivity constant) [1]: 3.76
pZn [2]: 15.39
log KZnL (pH = 7.4) (conditional stability constant) [2]: 14.38
pCa [3]: 7.46
log KCaL (pH = 7.4) (conditional stability constant) [3]: 6.43
pGd [4]: 19.14
pCu [5]: 18.06
log KCuL (pH = 7.4) (conditional stability constant) [5]: 17.00
ΣpKa [6]: 26.01
Structure (SMILES): O=C(O)CN(CCN(CC(=O)O)CC(=O)O)CCN(CC(=O)O)CC(=O)O [DTPA]
log KML [GdL]/[Gd][L] (thermodynamic stability constant) [7]: 22.46
log KCuHL [8]: 4.81
log KML [CuL]/[Cu][L] [8]: 21.38
log KML [ZnL]/[Zn][L] [9]: 18.70
log KZnHL [9]: 5.60
log Kn^H [H2L]/[HL][H] [10]: 8.60
log Kn^H [H3L]/[H2L][H] [10]: 4.28
log Kn^H [H4L]/[H3L][H] [10]: 2.64
log Kn^H [HL]/[L][H] [10]: 10.49
log KCaHL [11]: 6.11
log KML [CaL]/[Ca][L] [11]: 10.75

Structure (SMILES): O=C([O-])CN(CCN(CC(=O)[O-])C[C@H](COP(=O)([O-])OC1CCC(c2ccccc2)(c2ccccc2)CC1)N(CC(=O)[O-])CC(=O)[O-])CC(=O)[O-].[Gd+3].[H+].[H+].[H+] [MS-325]
bound relaxivity r1^b ([12]; bound to HSA): 47.0 mM⁻¹ s⁻¹
relaxivity for the combination with human serum albumin ([12]; bound to human serum albumin): 47.0 mM⁻¹ s⁻¹
binding constant with HSA, KA [12]: 3.0±0.2×10^4 M^−1

log KML [CaL]/[Ca][L] [3, 15]: 9.52
Structure (SMILES): O=C([O-])CN(CC(=O)[O-])CC1(CN(CCN(CC(=O)O)CC(=O)O)CC(=O)O)CCC1.[Ca+2] [[Ca(CB-TTDA)]^3−]

log KML [CuL]/[Cu][L] [5, 15]: 17.71
Structure (SMILES): O=C([O-])CN(CCN(CC(=O)[O-])CC1(CN(CC(=O)[O-])CC(=O)[O-])CCC1)CC(=O)[O-].[Cu+2] [[Cu(CB-TTDA)]^3−]

slope of d.i.s. versus concentration of Dy (III) complex ([13]; 17O-NMR): −48.2 ppm/mM
q, number of inner space water molecule ([13]; from slope relative to Dy (III) hydrate with 8 water molecules): 0.9
Structure (SMILES): O=C([O-])CN(CCN(CC(=O)[O-])CC1(CN(CC(=O)[O-])CC(=O)[O-])CCC1)CC(=O)[O-].[Dy+3] [[Dy(CB-TTDA)]^2−]

Structure (SMILES): CC1(N(CC(=O)[O-])CC(=O)[O-])CN(CC(=O)[O-])CCN(CC(=O)[O-])C1.[Gd+3] [[Gd(AAZTA)]^−]
relaxivity ([14]; 20 MHz and 298 K): 7.1 mM⁻¹ s⁻¹
relaxivity calculated by simulating the NMRD profile ([14]; τr increased to 30 ns): 100 mM⁻¹ s⁻¹

Structure (SMILES): CNC[C@H](O)[C@@H](O)[C@H](O)[C@H](O)CO.CNC[C@H](O)[C@@H](O)[C@H](O)[C@H](O)CO.O=C([O-])CN(CCN(CC(=O)[O-])CC(=O)O)CCN(CC(=O)O)C(COCc1ccccc1)C(=O)[O-].[Gd+3] (centres unmarked) [[Gd(BOPTA)]^2−, gadobenate dimeglumine]
relaxivity ([14]; Fulvio U. et al., 1995): 4.39 mM⁻¹ s⁻¹

log KML [ZnL]/[Zn][L] [2, 15]: 16.06
Structure (SMILES): O=C([O-])CN(CC(=O)[O-])CC1(CN(CCN(CC(=O)O)CC(=O)O)CC(=O)O)CCC1.[Zn+2] [[Zn(CB-TTDA)]^3−]
